Results published in article PMC11162475, “Rule-based omics mining reveals antimicrobial macrocyclic peptides against drug-resistant clinical isolates” (Nature Communications, 2024).
Values after ≈ are worked out from the molar mass of the structure shown.

Tests used:
[1] = test system: Micrococcus luteus DSM1790; experiment: Kirby-Bauer assay, zone of inhibition (agar well); format: cell-based; settings: M. luteus DSM1790; 10 μL DMSO stock (3.2 or 1.6 mg/mL) in well of soft LB agar, 30 °C, 20 h
Procedure: (§1) The stock solution of massatide A (1) and B (1a) 3.2 mg/mL were prepared in DMSO. 40 μL overnight culture of Micrococcus luteus DSM1790 was added to 20 mL soft Luria-Bertani agar (1% agar), and then poured into a plate. 10 μL tip was used to make two wells on the plate. 10 μL massatide A (1) or B (1a) solution was added in one of the wells, while in the other well, 10 μL DMSO was added as a negative control. The plates were incubated at 30 °C for 20 h to observe the zone of inhibition. Staphylococcus aureus ATCC25923 was also used to observe the inhibition zone using a similar method. The only difference is incubating at 37 °C. Stock solutions of sistertide A1, kebanetide A1 and A2 were 3.2 mg/mL, 1.6 mg/mL and 1.6 mg/mL, respectively. The method to observe the activity of these compounds individually was the same as that of massatide.

[2] = test system: Staphylococcus aureus ATCC25923; experiment: Kirby-Bauer assay, zone of inhibition (agar well); format: cell-based; settings: S. aureus ATCC25923; 10 μL of 3.2 mg/mL DMSO stock in well of soft LB agar, 37 °C, 20 h
Procedure: as §1

[3] = test system: S. aureus ATCC 25923
Procedure: was used as a negative control.
Experiments were performed in triplicate.
The experiment was performed in triplicate.

[4] = test system: chymotrypsin; settings: 32 μg/mL in H2O, protease 100:1 (w:w), 37 °C, 4 h, 8 h and 12 h, UPLC-LRMS
Procedure: (§2) Protease stability of massatide A
(§3) We selected TEV protease, Endoproteinase AspN, Endoproteinase GluC, trypsin, and chymotrypsin to evaluate the stability of massatide A. The protease digestion assay was conducted as follows: (i) Stock solution of massatide A (3.2 mg/mL in DMSO) was diluted in H2O with final concentration of 32 μg/mL, (ii) each protease was added with 100:1 (w:w) ratio and incubated under corresponding temperature, i.e., 37 °C for TEV protease, trypsin, and chymotrypsin and 30 °C for Endoproteinase AspN and […]
(§4) Endoproteinase GluC. […]
(§5) 1 μ L samples were taken and diluted with water for UPLC -LRMS analysis. […]

[5] = test system: TEV protease, Endoproteinase AspN, Endoproteinase GluC; settings: many other proteases (TEV protease 37 °C, Endoproteinase AspN and GluC 30 °C), 32 μg/mL, 100:1 (w:w), 4 h, 8 h, 12 h, UPLC-LRMS
Procedure: as §2, §3, §4

[6] = test system: trypsin; settings: 32 μg/mL in H2O, protease 100:1 (w:w), 37 °C, 4 h, 8 h and 12 h, UPLC-LRMS
Procedure: as §2, §3, §4

[7] = Thermal stability of massatide A
Procedure: Thermal stability of massatide A
A solution of Massatide A (3.2 mg/mL) was prepared in 1.5 mL Eppendorf tube. These
tubes were then incubated at 50 °C and 70 °C in a dry bath for 72 hours. After incubation,
as §5

[8] = test system: MRSA ATCC43300; experiment: Mouse septicaemia model; format: in vivo; settings: for number of new dead mouse: infection controlled in mouse; for survival rate of mice: 5 per group
Procedure: Briefly, 6-week-old specific pathogen-free male ICR mice weighing 18–20 g were randomly divided into 4 groups (5 per group). Each mouse received an intraperitoneal injection on the left side of the abdomen with 0.4 ml, 1.8 ×10^10 c.f.u./mL MRSA ATCC43300 suspended in saline containing 5% yeast in each mouse. One hour after infection, the mice were injected intraperitoneally with saline (negative control), massatide A dissolved in saline at 10 mg/kg, 30 mg/kg and 50 mg/kg (experimental groups). […] We injected 0.4 ml solution to each mouse. Animal deaths were recorded for 7 days, and the survival rates were calculated to generate the mouse survival curve.

[9] = test system: S. aureus ATCC259923; experiment: UDP-N-acetyl-muramic acid pentapeptide levels (HPLC-HRMS); format: cell-based, Staphylococcus aureus; settings: S. aureus treated with or without massatide A, comparative HPLC-HRMS, preliminary unpublished data
Description: page 26: “Also, there is no discussion about the possible mechanism of antibacterial activity.” We have included a discussion on the proposed mode of action of […] A in the discussion section in lines 388-394 of our manuscript. “Avi(Me)Cys-containing lanthipeptides are reported to target lipid II, an essential precursor in cell wall biosynthesis. […], which shares structural similarities with cacaoidin, may potentially target lipid II or certain membrane proteins involved in peptidoglycan biosynthesis. However, a comprehensive study is necessary to fully uncover the detailed mode of action of […] A, which will be the primary focus of our ongoing research.” In our ongoing study, we have obtained some preliminary unpublished data supporting our hypothesis that […] A may inhibit cell wall biosynthesis. We assessed UDP-N-acetyl-muramic acid pentapeptide levels, an essential precursor in cell wall biosynthesis, in the S. aureus ATCC259923 strain treated with or without […] The mode of action of […] A will be further investigated in our ongoing research. […] 12. p. 16: the data that […] A1 and A2 act synergistically are not convincing - see also main comment above. […] We acknowledge the concern regarding the insufficient evidence supporting the presence of a synergistic effect in our study. As a result, we have opted to remove any conclusions relating to synergy. […]

SMILES: C/C=C1\NC(=O)C(N(C)C)C(C)SC[C@@H](C(=O)N[C@H](CC)C(=O)N[C@H](C(=O)N[C@@H](C)C(=O)N[C@H](C)C(=O)N[C@@H](Cc2ccccc2)C(=O)N[C@@H](C)C(=O)NC2C(=O)NCC(=O)N[C@@H](Cc3ccc(O)cc3)C(=O)N[C@@H](Cc3ccccc3)C(=O)N[C@H](C)C(=O)N/C=C\SC2C)C(C)C)NC(=O)[C@@H]2CCCN2C(=O)[C@H](C(C)C)NC1=O (stereo partly shown) [Massatide A (1), massatide A]
- inhibitory activity (zone of inhibition) [1]: strong inhibitory activity
- inhibitory activity (zone of inhibition) [2]: strong inhibitory activity
- MIC to S. aureus after serial passaging ([3]; 25 days of serial passaging in subinhibitory concentrations, triplicate): 4 µg/mL (≈ 2.45 µM)
- change in MIC during serial passaging ([3]; subsequent 19 days after day 6): No significant change in MIC
- protease stability [4]: resistant
- protease stability [5]: resistant
- protease stability [6]: resistant
- stability under high temperatures ([7]; 3.2 mg/mL, 50 °C and 70 °C, dry bath, 72 hours, UPLC-LRMS): highly stable
- changes in retention time or m/z after incubation ([7]; 72 h incubation under 70 ℃, 3.2 mg/mL, UPLC-LRMS): No changes
- changes in bioactivity after incubation ([7]; time-course activity analysis, incubation at 50 ℃ and 70 ℃ up to 72 h): no obvious changes
- number of new dead mouse ([8]; 10mg/kg, time 2.29 day): 1
- number of new dead mouse ([8]; 10mg/kg, time 3 day): 0
- number of new dead mouse ([8]; 10mg/kg, time 4 day): 0
- number of new dead mouse ([8]; 10mg/kg, time 6 day): 0
- number of new dead mouse ([8]; 10mg/kg, time 7 day): 0
- number of new dead mouse ([8]; 30mg/kg, time 2.29 day): 1
- number of new dead mouse ([8]; 30mg/kg, time 3 day): 0
- number of new dead mouse ([8]; 30mg/kg, time 4 day): 0
- number of new dead mouse ([8]; 30mg/kg, time 6 day): 0
- number of new dead mouse ([8]; 30mg/kg, time 7 day): 0
- number of new dead mouse ([8]; 50mg/kg, time 2.29 day): 0
- number of new dead mouse ([8]; 50mg/kg, time 3 day): 0
- number of new dead mouse ([8]; 50mg/kg, time 4 day): 0
- number of new dead mouse ([8]; 50mg/kg, time 6 day): 0
- number of new dead mouse ([8]; 50mg/kg, time 7 day): 0
- survival rate of mice ([8]; single dose 10 mg/kg i.p. 1 h after i.p. infection with 7.2 × 10^9 c.f.u. MRSA ATCC43300, 7 days): 80%
- survival rate of mice ([8]; single dose 50 mg/kg i.p. 1 h after i.p. infection with 7.2 × 10^9 c.f.u. MRSA ATCC43300, 7 days): 100%
- UDP-N-acetyl-muramic acid pentapeptide levels [9]: increased levels
